{"source": "patent US6875761B2", "about": "(Eisai Co., Ltd., priority 1997, dated 2005)", "key": {"[1]": {"molecular_target": "T1, serotonin 1A receptor (Rattus norvegicus, UniProt P19327)", "T1 construct": "To the receptor fraction of the hippocampus were added a test compound and 0.5 nM of [^3H]; 8-hydroxy-dipropylaminotetralin; from tissue; host or cells: rat hippocampus membrane fraction", "T1 sequence (P19327 1-422)": "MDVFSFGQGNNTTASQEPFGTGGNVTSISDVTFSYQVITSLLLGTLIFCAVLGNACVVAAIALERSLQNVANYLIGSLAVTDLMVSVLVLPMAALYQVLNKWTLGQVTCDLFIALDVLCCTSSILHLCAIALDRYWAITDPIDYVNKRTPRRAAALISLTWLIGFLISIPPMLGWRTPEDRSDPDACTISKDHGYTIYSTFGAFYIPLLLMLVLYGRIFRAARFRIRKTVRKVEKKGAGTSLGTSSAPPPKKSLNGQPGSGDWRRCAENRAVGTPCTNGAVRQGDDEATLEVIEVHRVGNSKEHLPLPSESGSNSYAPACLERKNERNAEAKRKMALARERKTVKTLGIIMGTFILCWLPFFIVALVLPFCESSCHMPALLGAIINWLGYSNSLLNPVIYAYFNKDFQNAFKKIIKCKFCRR", "assay": "Binding test on [3H] 8-hydroxy-dipropylaminotetralin, hippocampus receptor fraction", "parameters": "species or system SD rats", "details": "rat hippocampus receptor fraction, 0.5 nM [3H] 8-OH-DPAT, room temperature 30 min; read-out: 5HT1"}, "[2]": {"molecular_target": "T2, serotonin 2 receptor (Rattus norvegicus, UniProt P14842)", "T2 construct": "To the receptor fraction of the cerebral cortex were added a test compound and 0.3 nM of [^3H] ketanserin; from tissue; host or cells: rat cerebral cortex membrane fraction", "T2 sequence (P14842 whole entry)": "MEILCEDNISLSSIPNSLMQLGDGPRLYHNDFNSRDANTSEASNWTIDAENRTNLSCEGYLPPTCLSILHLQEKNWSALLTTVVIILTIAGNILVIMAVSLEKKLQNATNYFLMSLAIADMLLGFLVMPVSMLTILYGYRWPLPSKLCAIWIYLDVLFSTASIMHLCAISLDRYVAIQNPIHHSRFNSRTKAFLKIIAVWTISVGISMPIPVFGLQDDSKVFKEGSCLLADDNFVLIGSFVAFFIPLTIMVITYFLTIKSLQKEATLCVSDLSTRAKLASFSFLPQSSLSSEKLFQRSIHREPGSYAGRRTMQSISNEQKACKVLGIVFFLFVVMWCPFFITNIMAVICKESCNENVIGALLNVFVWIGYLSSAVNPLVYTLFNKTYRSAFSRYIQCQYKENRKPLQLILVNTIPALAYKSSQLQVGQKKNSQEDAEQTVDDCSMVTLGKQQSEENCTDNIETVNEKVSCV", "assay": "Binding test on [3H] ketanserin, cerebral cortex receptor fraction", "parameters": "species or system SD rats", "details": "0.3 nM [3H] ketanserin, 37° C. 15 min, read-out: 5HT2"}}, "note": "Counter-ions that a name gives are not always drawn."}
{"smiles": "CCN1CCN(c2nc(-c3ccc(OCCO)cc3)cc3cccnc23)CC1", "note": "[Example 245, 8-(1-ethylpiperazin-4-yl)-6-[4-(2-hydroxyethoxy)phenyl]-1,7-naphthyridine Dihydrochloride]", "values": [{"measurement": "Ki", "setting": "[1]", "result": 109, "unit": "nM"}, {"measurement": "Ki", "setting": "[2]", "result": 72.2, "unit": "nM"}]}
{"smiles": "CCN1CCN(c2nc(-c3ccc(CCCO)cc3)cc3cccnc23)CC1", "note": "[Example 247, 8-(1-ethylpiperazin-4-yl)-6-[4-(3-hydroxypropyl)phenyl]-1,7-naphthyridine Dihydrochloride]", "values": [{"measurement": "Ki", "setting": "[1]", "result": 25.1, "unit": "nM"}, {"measurement": "Ki", "setting": "[2]", "result": 28.7, "unit": "nM"}]}
{"smiles": "CCN1CCN(c2nc(-c3ccc(CCC(C)O)cc3)cc3cccnc23)CC1", "note": "(stereo not shown) [Example 248, 8-(1-ethylpiperazin-4-yl)-6-[4-(3-hydroxybutyl)phenyl]-1,7-naphthyridine Dihydrochloride]", "values": [{"measurement": "Ki", "setting": "[1]", "result": 43, "unit": "nM"}, {"measurement": "Ki", "setting": "[2]", "result": 31.6, "unit": "nM"}]}
{"smiles": "CCN1CCN(c2nc(-c3ccc(C(F)CCO)cc3)cc3cccnc23)CC1", "note": "(stereo not shown) [Example 249, 8-(1-ethylpiperazin-4-yl)-6-[4-(3-hydroxy-1-fluoropropyl)phenyl]-1,7-naphthyridine Dihydrochloride]", "values": [{"measurement": "Ki", "setting": "[1]", "result": 38, "unit": "nM"}, {"measurement": "Ki", "setting": "[2]", "result": 28.1, "unit": "nM"}]}
{"smiles": "CCN1CCN(c2nc(-c3ccc(OCC(C)(C)O)cc3)cc3cccnc23)CC1", "note": "[Example 250, 8-(1-ethylpiperazin-4-yl)-6-[4-(2-hydroxy-2-methylpropoxy)phenyl]-1,7-naphthyridine Dihydrochloride]", "values": [{"measurement": "Ki", "setting": "[1]", "result": 123, "unit": "nM"}, {"measurement": "Ki", "setting": "[2]", "result": 7.67, "unit": "nM"}]}
{"smiles": "CN1CCN(c2nc(-c3ccc(OCCO)cc3)cc3ccsc23)CC1", "note": "[Example 253, 5-[4-(2-hydroxyethoxy)phenyl]-7-(4-methylpiperazin-1-yl)thieno[2,3-c]pyridine Hydrochloride]", "values": [{"measurement": "Ki", "setting": "[1]", "result": 75.4, "unit": "nM"}, {"measurement": "Ki", "setting": "[2]", "result": 5.98, "unit": "nM"}]}
{"smiles": "CCCCC(O)c1ccc(-c2cc3ccsc3c(N3CCN(CC)CC3)n2)cc1", "note": "(stereo not shown) [Example 254, 7-(1-ethylpiperazin-4-yl)-5-[4-(1-hydroxypentyl)phenyl]thieno[2,3-c]pyridine Dihydrochloride]", "values": [{"measurement": "Ki", "setting": "[1]", "result": 59.7, "unit": "nM"}, {"measurement": "Ki", "setting": "[2]", "result": 29.2, "unit": "nM"}]}
{"smiles": "CCN1CCN(c2nc(-c3ccc(C(O)CC(C)C)cc3)cc3ccsc23)CC1", "note": "(stereo not shown) [Example 255, 7-(1-ethylpiperazin-4-yl)-5-[4-(1-hydroxy-3-methylbutyl)phenyl]thieno[2,3-c]pyridine Dihydrochloride]", "values": [{"measurement": "Ki", "setting": "[1]", "result": 75.4, "unit": "nM"}, {"measurement": "Ki", "setting": "[2]", "result": 40, "unit": "nM"}]}
{"smiles": "CCN1CCN(c2nc(-c3ccc(C(F)CCO)cc3)cc3ccsc23)CC1", "note": "(stereo not shown) [Example 256, 7-(1-ethylpiperazin-4-yl)-5-[4-(3-hydroxy-1-fluoropropyl)phenyl]thieno[2,3-c]pyridine Dihydrochloride]", "values": [{"measurement": "Ki", "setting": "[1]", "result": 9.22, "unit": "nM"}, {"measurement": "Ki", "setting": "[2]", "result": 19.5, "unit": "nM"}]}
{"smiles": "CCN1CCN(c2nc(-c3ccc(CCCO)c(Cl)c3)cc3ccsc23)CC1", "note": "[Example 257, 5-[4-(3-hydroxypropyl)-3-chlorophenyl]-7-(4-ethylpiperazin-1-yl)thieno[2,3-c]pyridine Oxalate]", "values": [{"measurement": "Ki", "setting": "[1]", "result": 12.6, "unit": "nM"}, {"measurement": "Ki", "setting": "[2]", "result": 23.2, "unit": "nM"}]}
{"smiles": "CCN1CCN(c2nc(-c3cccc(OCCO)c3)cc3ccsc23)CC1", "note": "[Example 258, 7-(1-ethylpiperazin-4-yl)-5-[3-(2-hydroxyethoxy)phenyl]thieno[2,3-c]pyridine Dihydrochloride]", "values": [{"measurement": "Ki", "setting": "[1]", "result": 24.7, "unit": "nM"}, {"measurement": "Ki", "setting": "[2]", "result": 35.1, "unit": "nM"}]}
{"smiles": "CCN1CCN(c2nc(-c3ccc(OCC(C)(C)O)cc3)cc3ccsc23)CC1", "note": "[Example 260, 7-(1-Ethylpiperazin-4-yl)-5-[4-(2-hydroxy-2-methylpropoxy)phenyl]thieno[2,3-c]pyridine dihydrochloride]", "values": [{"measurement": "Ki", "setting": "[1]", "result": 67.8, "unit": "nM"}, {"measurement": "Ki", "setting": "[2]", "result": 0.54, "unit": "nM"}]}
{"smiles": "CCN1CCN(c2nc(-c3ccc(OC)c(CCCO)c3)cc3ccsc23)CC1", "note": "[Example 261, 5-[3-(3-hydroxypropyl)-4-methoxyphenyl]-7-(4-ethylpiperazin-1-yl)thieno[2,3-c]pyridine Oxalate]", "values": [{"measurement": "Ki", "setting": "[1]", "result": 53.7, "unit": "nM"}, {"measurement": "Ki", "setting": "[2]", "result": 0.06, "unit": "nM"}]}
{"smiles": "CCN1CCN(c2nc(-c3ccc(CCCO)c(C#N)c3)cc3ccsc23)CC1", "note": "[Example 262, 5-[4-(3-hydroxypropyl)-3-cyanophenyl]-7-(4-ethylpiperazin-1-yl)thieno[2,3-c]pyridine Oxalate]", "values": [{"measurement": "Ki", "setting": "[1]", "result": 9.04, "unit": "nM"}, {"measurement": "Ki", "setting": "[2]", "result": 0.25, "unit": "nM"}]}
{"smiles": "CCN1CCN(c2nc(-c3ccc(N4CCOCC4)nc3)cc3ccsc23)CC1", "note": "[Example 263, 5-[2-(4-morpholinyl)pyridin-5-yl]-7-(4-ethylpiperazin-1-yl)thieno[2,3-c]pyridine Hydrochloride]", "values": [{"measurement": "Ki", "setting": "[1]", "result": 6.42, "unit": "nM"}, {"measurement": "Ki", "setting": "[2]", "result": 0.89, "unit": "nM"}]}
{"smiles": "CCN1CCN(c2nc(-c3ccc(N4CCSCC4)nc3)cc3ccsc23)CC1", "note": "[Example 264, 5-[2-(4-thiomorpholinyl)pyridin-5-yl]-7-(4-ethylpiperazine-1-yl)thieno[2,3-c]pyridine Hydrochloride]", "values": [{"measurement": "Ki", "setting": "[1]", "result": 61.3, "unit": "nM"}, {"measurement": "Ki", "setting": "[2]", "result": 3.34, "unit": "nM"}]}
{"smiles": "CCN1CCN(c2nc(-c3ccc(N4CCC(O)CC4)nc3)cc3ccsc23)CC1", "note": "[Example 265, 5-[2-(4-hydroxypiperidin-1-yl)pyridin-5-yl]-7-(4-ethylpiperazin-1-yl)thieno[2,3-c]pyridine Hydrochloride]", "values": [{"measurement": "Ki", "setting": "[1]", "result": 9.73, "unit": "nM"}, {"measurement": "Ki", "setting": "[2]", "result": 114, "unit": "nM"}]}
{"smiles": "CCN1CCN(c2nc(-c3ccc(C4=CCOCC4)cc3)cc3ccsc23)CC1", "note": "[Example 266, 5-[4-(5,6-dihydro-2H-pyran-4-yl)phenyl]-7-(4-ethylpiperazin-1-yl)thieno[2,3-c]pyridine Hydrochloride]", "values": [{"measurement": "Ki", "setting": "[1]", "result": 97.3, "unit": "nM"}, {"measurement": "Ki", "setting": "[2]", "result": 13.8, "unit": "nM"}]}
{"smiles": "CCN1CCN(c2nc(-c3ccc(OC(C)COC)nc3)cc3ccsc23)CC1", "note": "(stereo not shown) [Example 267, 5-[2-(2-methoxyethoxy-2-methyl)pyridin-5-yl]-7-(4-ethylpiperazin-1-yl)thieno[2,3-c]pyridine Hydrochloride]", "values": [{"measurement": "Ki", "setting": "[1]", "result": 10.4, "unit": "nM"}, {"measurement": "Ki", "setting": "[2]", "result": 68.7, "unit": "nM"}]}
{"smiles": "CCN1CCN(c2nc(-c3ccc(OCCO)nc3)cc3ccsc23)CC1", "note": "[Example 268, 5-[2-(2-hydroxyethoxy)pyridin-5-yl]-7-(4-ethylpiperazin-1-yl)thieno[2,3-c]pyridine Oxalate]", "values": [{"measurement": "Ki", "setting": "[1]", "result": 16.5, "unit": "nM"}, {"measurement": "Ki", "setting": "[2]", "result": 86, "unit": "nM"}]}
{"smiles": "CCN1CCN(c2nc(-c3ccc(OCCOC)nc3)cc3ccsc23)CC1", "note": "[Example 269, 5-[2-(2-methoxyethoxy)pyridin-5-yl]-7-(4-ethylpiperazin-1-yl)-thieno[2,3-c]pyridine hydrochloride]", "values": [{"measurement": "Ki", "setting": "[1]", "result": 15.5, "unit": "nM"}, {"measurement": "Ki", "setting": "[2]", "result": 58.4, "unit": "nM"}]}
{"smiles": "CCN1CCN(c2nc(-c3ccc(C4=CCC(O)CC4)cc3)cc3ccsc23)CC1", "note": "(stereo not shown) [Example 270, 5-[4-(4-hydroxycyclohexen-1-yl)phenyl]-7-(4-ethylpiperazin-1-yl)thieno[2,3-c]pyridine hydrochloride]", "values": [{"measurement": "Ki", "setting": "[1]", "result": 43, "unit": "nM"}, {"measurement": "Ki", "setting": "[2]", "result": 30.3, "unit": "nM"}]}
{"smiles": "CCN1CCN(c2nc(-c3ccc(C(=O)CC(C)C)cc3)cc3ccsc23)CC1", "note": "[Example 272, 7-(1-ethylpiperazin-4-yl)-5-[4-(3-methylbutanoyl)phenyl]thieno[2,3-c]pyridine dihydrochloride]", "values": [{"measurement": "Ki", "setting": "[1]", "result": 160, "unit": "nM"}, {"measurement": "Ki", "setting": "[2]", "result": 22.4, "unit": "nM"}]}
{"smiles": "CCN1CCN(c2nc(-c3ccc(C(=O)NC4CCCCC4)cc3)cc3ccsc23)CC1", "note": "[Example 273, dihydrochloride]", "values": [{"measurement": "Ki", "setting": "[1]", "result": 51.4, "unit": "nM"}, {"measurement": "Ki", "setting": "[2]", "result": 9.11, "unit": "nM"}]}
{"smiles": "COc1ccc(-c2cc3ccsc3c(N3CCN(CCO)CC3)n2)cc1", "note": "[Example 276, 5-(4-methoxyphenyl)-7-[4-(2-hydroxyethyl)piperazin-1-yl]thieno[2,3-c]pyridine hydrochloride]", "values": [{"measurement": "Ki", "setting": "[1]", "result": 160, "unit": "nM"}, {"measurement": "Ki", "setting": "[2]", "result": 0.45, "unit": "nM"}]}
{"smiles": "CCN1CCN(c2nc(-c3ccc(OC)cc3)cc3cscc23)CC1", "note": "[Example 277, 4-(4-ethylpiperazin-1-yl)-6-(4-methoxyphenyl)thieno[3,4-c]pyridine oxalate]", "values": [{"measurement": "Ki", "setting": "[1]", "result": 71.4, "unit": "nM"}, {"measurement": "Ki", "setting": "[2]", "result": 52.1, "unit": "nM"}]}
